According to ChEMBL document CHEMBL1148538, “Scaffold oriented synthesis. Part 1: Design, preparation, and biological evaluation of thienopyrazoles as kinase inhibitors” (Bioorg Med Chem Lett, 2006):

molecular target: Casein kinase II (Homo sapiens, UniProt P19784+P67870+P68400); experiment: Inhibitory activity against CK2; assay type: protein-complex assay
Sequence (P67870 whole entry): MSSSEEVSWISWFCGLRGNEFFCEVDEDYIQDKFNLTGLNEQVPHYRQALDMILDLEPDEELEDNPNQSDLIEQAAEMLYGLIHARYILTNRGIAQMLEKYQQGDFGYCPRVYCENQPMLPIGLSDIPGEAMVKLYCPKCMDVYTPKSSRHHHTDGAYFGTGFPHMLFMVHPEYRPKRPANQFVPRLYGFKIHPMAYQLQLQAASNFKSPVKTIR
Sequence (P68400 whole entry): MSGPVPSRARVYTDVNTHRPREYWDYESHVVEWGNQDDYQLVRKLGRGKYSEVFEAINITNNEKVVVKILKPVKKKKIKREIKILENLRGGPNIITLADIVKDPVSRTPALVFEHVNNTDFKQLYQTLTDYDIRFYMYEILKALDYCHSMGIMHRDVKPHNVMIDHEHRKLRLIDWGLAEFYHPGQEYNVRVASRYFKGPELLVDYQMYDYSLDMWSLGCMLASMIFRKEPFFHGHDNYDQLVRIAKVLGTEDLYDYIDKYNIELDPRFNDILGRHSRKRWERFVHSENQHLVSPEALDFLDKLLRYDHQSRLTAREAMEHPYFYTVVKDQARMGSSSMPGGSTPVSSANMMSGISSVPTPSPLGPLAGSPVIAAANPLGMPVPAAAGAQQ
Sequence (P19784 whole entry): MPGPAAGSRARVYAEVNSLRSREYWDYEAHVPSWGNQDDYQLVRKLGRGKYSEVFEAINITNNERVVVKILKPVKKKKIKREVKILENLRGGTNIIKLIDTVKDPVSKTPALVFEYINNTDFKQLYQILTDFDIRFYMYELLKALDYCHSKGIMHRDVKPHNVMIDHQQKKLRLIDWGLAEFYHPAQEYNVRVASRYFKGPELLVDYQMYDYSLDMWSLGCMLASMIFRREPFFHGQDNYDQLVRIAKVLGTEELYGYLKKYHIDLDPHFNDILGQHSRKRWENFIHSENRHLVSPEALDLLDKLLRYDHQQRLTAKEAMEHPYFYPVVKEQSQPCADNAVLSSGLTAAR

SMILES | IC50 [µM]
COC(=O)c1cc2c(C)n[nH]c2s1 | 38
CCCCN(C)C(=O)c1cc2c(-c3ccccc3)n[nH]c2s1 | 5
Cc1n[nH]c2sc(C(N)=O)c(NC(=O)c3cccc(Cl)c3)c12 | > 100
Cc1n[nH]c2sc(C(=O)NC3CCCCC3)cc12 | > 20
COC(=O)C(=O)Nc1c(C(N)=O)sc2[nH]nc(C)c12 | 3
Cc1n[nH]c2sc(C(N)=O)cc12 | 4
CCCCN(C)C(=O)c1cc2c(C)n[nH]c2s1 | 24
CN1CCN(C(=O)c2cc3c(-c4ccccc4)n[nH]c3s2)CC1 | > 20
Cc1n[nH]c2sc(C(=O)NCc3ccccc3)cc12 | 19
Cc1n[nH]c2sc(C(N)=O)c(NC(=O)c3cccs3)c12 | > 100
CCCCNC(=O)c1cc2c(C)n[nH]c2s1 | 21
O=C(NC1CCCCC1)c1cc2c(-c3ccccc3)n[nH]c2s1 | > 20
Cc1[nH]nc2sc(C(N)=O)c(NC(=O)Nc3ccccc3)c12 | 11
COc1ccc(CNC(=O)c2cc3c(-c4ccccc4)n[nH]c3s2)cc1 | > 20
CC(=O)Nc1c(C(N)=O)sc2n[nH]c(C)c12 | 9
O=C(NCc1ccccc1)c1cc2c(-c3ccccc3)n[nH]c2s1 | 2
Cc1[nH]nc2sc(C(N)=O)c(NC(=O)c3ccc(Cl)cc3)c12 | > 100
Cc1[nH]nc2sc(C(N)=O)c(NC(=O)c3ccccc3Cl)c12 | 9
Cc1n[nH]c2sc(C(N)=O)c(NC(=O)COc3ccccc3)c12 | 6
COC(=O)c1cc2c(Nc3ccccc3)[nH]nc2s1 | 5
COC(=O)c1cc2c(CN3CCCCC3)n[nH]c2s1 | > 100
O=C(NCCc1ccccc1)c1cc2c(-c3ccccc3)n[nH]c2s1 | > 20

molecular target: Serine/threonine-protein kinase PAK 4 (Homo sapiens, UniProt O96013); experiment: Inhibitory activity against Pak4
Sequence (O96013 whole entry): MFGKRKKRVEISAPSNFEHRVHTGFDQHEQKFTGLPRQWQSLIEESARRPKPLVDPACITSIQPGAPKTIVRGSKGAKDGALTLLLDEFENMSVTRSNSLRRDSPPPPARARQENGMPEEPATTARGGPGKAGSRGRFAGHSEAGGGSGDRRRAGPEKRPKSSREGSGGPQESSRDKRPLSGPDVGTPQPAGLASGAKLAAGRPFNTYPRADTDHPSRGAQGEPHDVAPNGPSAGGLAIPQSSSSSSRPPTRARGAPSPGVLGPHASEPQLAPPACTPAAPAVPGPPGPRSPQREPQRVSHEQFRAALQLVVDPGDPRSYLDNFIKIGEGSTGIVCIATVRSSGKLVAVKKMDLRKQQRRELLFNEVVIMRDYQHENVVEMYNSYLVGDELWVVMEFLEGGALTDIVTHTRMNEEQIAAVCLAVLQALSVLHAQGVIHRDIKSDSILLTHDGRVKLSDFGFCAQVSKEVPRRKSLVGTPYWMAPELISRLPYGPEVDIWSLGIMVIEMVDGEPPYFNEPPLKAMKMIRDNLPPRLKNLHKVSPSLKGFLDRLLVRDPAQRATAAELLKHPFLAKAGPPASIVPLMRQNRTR

SMILES | IC50 [µM]
COC(=O)c1cc2c(C)n[nH]c2s1 | > 100
CCCCN(C)C(=O)c1cc2c(-c3ccccc3)n[nH]c2s1 | > 20
Cc1n[nH]c2sc(C(N)=O)c(NC(=O)c3cccc(Cl)c3)c12 | > 100
Cc1n[nH]c2sc(C(=O)NC3CCCCC3)cc12 | > 20
COC(=O)C(=O)Nc1c(C(N)=O)sc2[nH]nc(C)c12 | > 100
Cc1n[nH]c2sc(C(N)=O)cc12 | > 20
CCCCN(C)C(=O)c1cc2c(C)n[nH]c2s1 | > 20
CN1CCN(C(=O)c2cc3c(-c4ccccc4)n[nH]c3s2)CC1 | > 20
Cc1n[nH]c2sc(C(=O)NCc3ccccc3)cc12 | > 20
Cc1n[nH]c2sc(C(N)=O)c(NC(=O)c3cccs3)c12 | > 100
CCCCNC(=O)c1cc2c(C)n[nH]c2s1 | > 20
O=C(NC1CCCCC1)c1cc2c(-c3ccccc3)n[nH]c2s1 | > 20
Cc1[nH]nc2sc(C(N)=O)c(NC(=O)Nc3ccccc3)c12 | 13
COc1ccc(CNC(=O)c2cc3c(-c4ccccc4)n[nH]c3s2)cc1 | > 20
CC(=O)Nc1c(C(N)=O)sc2n[nH]c(C)c12 | > 20
O=C(NCc1ccccc1)c1cc2c(-c3ccccc3)n[nH]c2s1 | > 20
Cc1[nH]nc2sc(C(N)=O)c(NC(=O)c3ccc(Cl)cc3)c12 | > 100
Cc1[nH]nc2sc(C(N)=O)c(NC(=O)c3ccccc3Cl)c12 | > 100
Cc1n[nH]c2sc(C(N)=O)c(NC(=O)COc3ccccc3)c12 | > 100
COC(=O)c1cc2c(Nc3ccccc3)[nH]nc2s1 | 37
COC(=O)c1cc2c(CN3CCCCC3)n[nH]c2s1 | > 100
O=C(NCCc1ccccc1)c1cc2c(-c3ccccc3)n[nH]c2s1 | > 20

molecular target: MAP kinase-activated protein kinase 2 (Homo sapiens, UniProt P49137); experiment: Inhibitory activity against MK2

SMILES | IC50 [µM]
CCCCN(C)C(=O)c1cc2c(-c3ccccc3)n[nH]c2s1 | > 20
Cc1n[nH]c2sc(C(=O)NC3CCCCC3)cc12 | > 20
Cc1n[nH]c2sc(C(N)=O)cc12 | > 20
CCCCN(C)C(=O)c1cc2c(C)n[nH]c2s1 | > 20
CN1CCN(C(=O)c2cc3c(-c4ccccc4)n[nH]c3s2)CC1 | > 20
Cc1n[nH]c2sc(C(=O)NCc3ccccc3)cc12 | > 20
CCCCNC(=O)c1cc2c(C)n[nH]c2s1 | > 20
O=C(NC1CCCCC1)c1cc2c(-c3ccccc3)n[nH]c2s1 | > 20
COc1ccc(CNC(=O)c2cc3c(-c4ccccc4)n[nH]c3s2)cc1 | 16
O=C(NCc1ccccc1)c1cc2c(-c3ccccc3)n[nH]c2s1 | 17
O=C(NCCc1ccccc1)c1cc2c(-c3ccccc3)n[nH]c2s1 | > 20

molecular target: Cyclin-dependent kinase 2/cyclin A (Homo sapiens, UniProt P24941); experiment: Inhibitory activity against CDK2/Cyclin A; assay type: protein-complex assay

SMILES | IC50 [µM]
CCCCN(C)C(=O)c1cc2c(-c3ccccc3)n[nH]c2s1 | > 20
CN1CCN(C(=O)c2cc3c(-c4ccccc4)n[nH]c3s2)CC1 | > 20
O=C(NC1CCCCC1)c1cc2c(-c3ccccc3)n[nH]c2s1 | 11
COc1ccc(CNC(=O)c2cc3c(-c4ccccc4)n[nH]c3s2)cc1 | > 20
O=C(NCCc1ccccc1)c1cc2c(-c3ccccc3)n[nH]c2s1 | > 20

molecular target: Vascular endothelial growth factor receptor 2 (Homo sapiens, UniProt P35968); experiment: Inhibitory activity against KDR
Sequence (P35968 whole entry): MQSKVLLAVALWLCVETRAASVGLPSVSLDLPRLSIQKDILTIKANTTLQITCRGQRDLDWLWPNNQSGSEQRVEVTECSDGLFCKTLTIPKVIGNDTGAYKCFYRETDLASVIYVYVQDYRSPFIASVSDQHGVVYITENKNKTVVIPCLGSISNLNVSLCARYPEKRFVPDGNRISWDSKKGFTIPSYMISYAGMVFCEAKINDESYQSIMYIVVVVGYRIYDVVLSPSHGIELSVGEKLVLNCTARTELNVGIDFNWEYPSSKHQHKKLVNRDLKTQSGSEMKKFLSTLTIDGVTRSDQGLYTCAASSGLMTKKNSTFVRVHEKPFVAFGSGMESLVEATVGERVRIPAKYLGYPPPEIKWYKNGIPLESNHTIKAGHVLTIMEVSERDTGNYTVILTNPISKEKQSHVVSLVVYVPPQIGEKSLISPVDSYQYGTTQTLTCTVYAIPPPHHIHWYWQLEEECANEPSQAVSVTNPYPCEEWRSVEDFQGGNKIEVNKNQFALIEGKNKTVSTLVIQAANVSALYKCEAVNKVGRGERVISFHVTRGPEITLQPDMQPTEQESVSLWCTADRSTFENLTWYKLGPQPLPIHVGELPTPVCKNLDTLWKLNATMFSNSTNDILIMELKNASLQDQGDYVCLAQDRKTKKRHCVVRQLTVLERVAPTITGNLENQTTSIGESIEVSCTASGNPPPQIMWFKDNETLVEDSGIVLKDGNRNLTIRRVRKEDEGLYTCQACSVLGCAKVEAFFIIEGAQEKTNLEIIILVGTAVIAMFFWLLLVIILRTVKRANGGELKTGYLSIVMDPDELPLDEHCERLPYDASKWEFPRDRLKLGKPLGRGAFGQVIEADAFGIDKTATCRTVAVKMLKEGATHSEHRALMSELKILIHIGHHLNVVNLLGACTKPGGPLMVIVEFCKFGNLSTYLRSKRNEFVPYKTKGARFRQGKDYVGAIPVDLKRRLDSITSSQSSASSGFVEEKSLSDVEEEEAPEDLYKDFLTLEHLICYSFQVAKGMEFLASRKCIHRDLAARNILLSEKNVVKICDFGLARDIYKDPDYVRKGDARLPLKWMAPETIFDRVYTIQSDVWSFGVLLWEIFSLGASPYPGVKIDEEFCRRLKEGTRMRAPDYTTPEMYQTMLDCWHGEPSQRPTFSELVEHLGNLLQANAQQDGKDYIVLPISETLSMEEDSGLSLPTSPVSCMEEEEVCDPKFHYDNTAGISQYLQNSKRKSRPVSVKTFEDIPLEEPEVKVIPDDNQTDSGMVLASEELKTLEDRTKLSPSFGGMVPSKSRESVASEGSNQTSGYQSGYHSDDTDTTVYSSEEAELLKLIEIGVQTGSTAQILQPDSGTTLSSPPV

SMILES | IC50 [µM]
COC(=O)c1cc2c(C)n[nH]c2s1 | 23
CCCCN(C)C(=O)c1cc2c(-c3ccccc3)n[nH]c2s1 | 0.35
Cc1n[nH]c2sc(C(N)=O)c(NC(=O)c3cccc(Cl)c3)c12 | > 100
Cc1n[nH]c2sc(C(=O)NC3CCCCC3)cc12 | > 20
COC(=O)C(=O)Nc1c(C(N)=O)sc2[nH]nc(C)c12 | 17
Cc1n[nH]c2sc(C(N)=O)cc12 | 17
CCCCN(C)C(=O)c1cc2c(C)n[nH]c2s1 | > 20
CN1CCN(C(=O)c2cc3c(-c4ccccc4)n[nH]c3s2)CC1 | 4
Cc1n[nH]c2sc(C(=O)NCc3ccccc3)cc12 | 12
Cc1n[nH]c2sc(C(N)=O)c(NC(=O)c3cccs3)c12 | 6
CCCCNC(=O)c1cc2c(C)n[nH]c2s1 | 16
O=C(NC1CCCCC1)c1cc2c(-c3ccccc3)n[nH]c2s1 | 0.49
Cc1[nH]nc2sc(C(N)=O)c(NC(=O)Nc3ccccc3)c12 | 20
COc1ccc(CNC(=O)c2cc3c(-c4ccccc4)n[nH]c3s2)cc1 | 0.51
CC(=O)Nc1c(C(N)=O)sc2n[nH]c(C)c12 | 19
O=C(NCc1ccccc1)c1cc2c(-c3ccccc3)n[nH]c2s1 | 0.5
Cc1[nH]nc2sc(C(N)=O)c(NC(=O)c3ccc(Cl)cc3)c12 | > 100
Cc1[nH]nc2sc(C(N)=O)c(NC(=O)c3ccccc3Cl)c12 | 8
Cc1n[nH]c2sc(C(N)=O)c(NC(=O)COc3ccccc3)c12 | 11
COC(=O)c1cc2c(Nc3ccccc3)[nH]nc2s1 | > 100
COC(=O)c1cc2c(CN3CCCCC3)n[nH]c2s1 | > 100
O=C(NCCc1ccccc1)c1cc2c(-c3ccccc3)n[nH]c2s1 | 2

molecular target: Serine/threonine-protein kinase PLK1 (Homo sapiens, UniProt P53350); experiment: Inhibitory activity against Plk1
Sequence (P53350 whole entry): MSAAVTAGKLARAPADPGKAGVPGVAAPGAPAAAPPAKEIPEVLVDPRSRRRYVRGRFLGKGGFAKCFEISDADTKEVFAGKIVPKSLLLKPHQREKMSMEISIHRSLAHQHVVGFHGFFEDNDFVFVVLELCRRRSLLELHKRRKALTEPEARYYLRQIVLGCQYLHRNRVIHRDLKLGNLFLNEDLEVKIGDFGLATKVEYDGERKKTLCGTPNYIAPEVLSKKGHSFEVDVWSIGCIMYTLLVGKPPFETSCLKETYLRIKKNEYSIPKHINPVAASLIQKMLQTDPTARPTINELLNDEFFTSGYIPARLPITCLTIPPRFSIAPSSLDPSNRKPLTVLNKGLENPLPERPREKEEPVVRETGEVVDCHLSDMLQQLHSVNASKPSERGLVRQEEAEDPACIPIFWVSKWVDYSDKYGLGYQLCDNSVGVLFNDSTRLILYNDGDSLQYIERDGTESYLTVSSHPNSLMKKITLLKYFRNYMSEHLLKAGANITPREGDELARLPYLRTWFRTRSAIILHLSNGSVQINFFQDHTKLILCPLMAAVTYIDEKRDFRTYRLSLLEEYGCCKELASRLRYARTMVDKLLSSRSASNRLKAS

SMILES | IC50 [µM]
COC(=O)c1cc2c(C)n[nH]c2s1 | > 100
CCCCN(C)C(=O)c1cc2c(-c3ccccc3)n[nH]c2s1 | > 20
Cc1n[nH]c2sc(C(N)=O)c(NC(=O)c3cccc(Cl)c3)c12 | > 100
Cc1n[nH]c2sc(C(=O)NC3CCCCC3)cc12 | > 20
COC(=O)C(=O)Nc1c(C(N)=O)sc2[nH]nc(C)c12 | 8
Cc1n[nH]c2sc(C(N)=O)cc12 | > 20
CCCCN(C)C(=O)c1cc2c(C)n[nH]c2s1 | > 20
CN1CCN(C(=O)c2cc3c(-c4ccccc4)n[nH]c3s2)CC1 | > 20
Cc1n[nH]c2sc(C(=O)NCc3ccccc3)cc12 | 16
Cc1n[nH]c2sc(C(N)=O)c(NC(=O)c3cccs3)c12 | > 100
CCCCNC(=O)c1cc2c(C)n[nH]c2s1 | > 20
O=C(NC1CCCCC1)c1cc2c(-c3ccccc3)n[nH]c2s1 | 12
Cc1[nH]nc2sc(C(N)=O)c(NC(=O)Nc3ccccc3)c12 | > 20
COc1ccc(CNC(=O)c2cc3c(-c4ccccc4)n[nH]c3s2)cc1 | > 20
CC(=O)Nc1c(C(N)=O)sc2n[nH]c(C)c12 | > 20
Cc1[nH]nc2sc(C(N)=O)c(NC(=O)c3ccc(Cl)cc3)c12 | > 100
Cc1[nH]nc2sc(C(N)=O)c(NC(=O)c3ccccc3Cl)c12 | 23
Cc1n[nH]c2sc(C(N)=O)c(NC(=O)COc3ccccc3)c12 | > 100
COC(=O)c1cc2c(Nc3ccccc3)[nH]nc2s1 | 21
COC(=O)c1cc2c(CN3CCCCC3)n[nH]c2s1 | > 100
O=C(NCCc1ccccc1)c1cc2c(-c3ccccc3)n[nH]c2s1 | 17

molecular target: RAC-alpha serine/threonine-protein kinase (Homo sapiens, UniProt P31749); experiment: Inhibitory activity against Akt1
Sequence (P31749 whole entry): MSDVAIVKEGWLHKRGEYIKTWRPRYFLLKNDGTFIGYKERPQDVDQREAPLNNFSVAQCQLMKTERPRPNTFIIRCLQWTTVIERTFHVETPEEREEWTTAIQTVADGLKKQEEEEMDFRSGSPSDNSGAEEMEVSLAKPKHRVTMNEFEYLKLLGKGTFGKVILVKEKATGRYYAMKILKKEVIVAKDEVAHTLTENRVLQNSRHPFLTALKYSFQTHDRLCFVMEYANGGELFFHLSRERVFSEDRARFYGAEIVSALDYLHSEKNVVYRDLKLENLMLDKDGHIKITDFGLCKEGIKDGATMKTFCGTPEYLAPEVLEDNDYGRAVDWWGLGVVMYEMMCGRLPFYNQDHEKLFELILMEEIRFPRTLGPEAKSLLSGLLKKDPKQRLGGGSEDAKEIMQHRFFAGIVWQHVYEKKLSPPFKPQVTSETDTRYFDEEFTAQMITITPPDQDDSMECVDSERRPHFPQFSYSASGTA

SMILES | IC50 [µM]
COC(=O)c1cc2c(C)n[nH]c2s1 | > 100
CCCCN(C)C(=O)c1cc2c(-c3ccccc3)n[nH]c2s1 | > 20
Cc1n[nH]c2sc(C(N)=O)c(NC(=O)c3cccc(Cl)c3)c12 | > 100
Cc1n[nH]c2sc(C(=O)NC3CCCCC3)cc12 | > 20
COC(=O)C(=O)Nc1c(C(N)=O)sc2[nH]nc(C)c12 | > 100
Cc1n[nH]c2sc(C(N)=O)cc12 | > 20
CCCCN(C)C(=O)c1cc2c(C)n[nH]c2s1 | > 20
CN1CCN(C(=O)c2cc3c(-c4ccccc4)n[nH]c3s2)CC1 | > 20
Cc1n[nH]c2sc(C(=O)NCc3ccccc3)cc12 | > 20
Cc1n[nH]c2sc(C(N)=O)c(NC(=O)c3cccs3)c12 | 17
CCCCNC(=O)c1cc2c(C)n[nH]c2s1 | > 20
O=C(NC1CCCCC1)c1cc2c(-c3ccccc3)n[nH]c2s1 | > 20
Cc1[nH]nc2sc(C(N)=O)c(NC(=O)Nc3ccccc3)c12 | 9
COc1ccc(CNC(=O)c2cc3c(-c4ccccc4)n[nH]c3s2)cc1 | > 20
CC(=O)Nc1c(C(N)=O)sc2n[nH]c(C)c12 | > 20
O=C(NCc1ccccc1)c1cc2c(-c3ccccc3)n[nH]c2s1 | 15
Cc1[nH]nc2sc(C(N)=O)c(NC(=O)c3ccc(Cl)cc3)c12 | > 100
Cc1[nH]nc2sc(C(N)=O)c(NC(=O)c3ccccc3Cl)c12 | > 100
Cc1n[nH]c2sc(C(N)=O)c(NC(=O)COc3ccccc3)c12 | > 100
COC(=O)c1cc2c(Nc3ccccc3)[nH]nc2s1 | 16
COC(=O)c1cc2c(CN3CCCCC3)n[nH]c2s1 | > 100
O=C(NCCc1ccccc1)c1cc2c(-c3ccccc3)n[nH]c2s1 | > 20

molecular target: Mitogen-activated protein kinase 14 (Homo sapiens, UniProt Q16539); experiment: Inhibitory activity against p38alpha
Sequence (Q16539 whole entry): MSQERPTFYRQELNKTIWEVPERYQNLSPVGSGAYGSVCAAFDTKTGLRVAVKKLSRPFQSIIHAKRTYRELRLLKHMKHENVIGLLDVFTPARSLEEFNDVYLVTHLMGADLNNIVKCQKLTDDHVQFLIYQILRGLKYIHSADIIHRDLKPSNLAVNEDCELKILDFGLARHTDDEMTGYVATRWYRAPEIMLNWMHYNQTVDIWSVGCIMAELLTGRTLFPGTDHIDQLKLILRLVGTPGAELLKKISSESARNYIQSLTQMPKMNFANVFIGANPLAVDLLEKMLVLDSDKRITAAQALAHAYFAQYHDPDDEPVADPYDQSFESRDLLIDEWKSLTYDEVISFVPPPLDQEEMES

SMILES | IC50 [µM]
CCCCN(C)C(=O)c1cc2c(-c3ccccc3)n[nH]c2s1 | > 20
CN1CCN(C(=O)c2cc3c(-c4ccccc4)n[nH]c3s2)CC1 | > 20
O=C(NC1CCCCC1)c1cc2c(-c3ccccc3)n[nH]c2s1 | > 20
COc1ccc(CNC(=O)c2cc3c(-c4ccccc4)n[nH]c3s2)cc1 | > 20
O=C(NCCc1ccccc1)c1cc2c(-c3ccccc3)n[nH]c2s1 | > 20

molecular target: Mitogen-activated protein kinase kinase kinase 8 (Homo sapiens, UniProt P41279); experiment: Inhibitory activity against COT
Sequence (P41279 whole entry): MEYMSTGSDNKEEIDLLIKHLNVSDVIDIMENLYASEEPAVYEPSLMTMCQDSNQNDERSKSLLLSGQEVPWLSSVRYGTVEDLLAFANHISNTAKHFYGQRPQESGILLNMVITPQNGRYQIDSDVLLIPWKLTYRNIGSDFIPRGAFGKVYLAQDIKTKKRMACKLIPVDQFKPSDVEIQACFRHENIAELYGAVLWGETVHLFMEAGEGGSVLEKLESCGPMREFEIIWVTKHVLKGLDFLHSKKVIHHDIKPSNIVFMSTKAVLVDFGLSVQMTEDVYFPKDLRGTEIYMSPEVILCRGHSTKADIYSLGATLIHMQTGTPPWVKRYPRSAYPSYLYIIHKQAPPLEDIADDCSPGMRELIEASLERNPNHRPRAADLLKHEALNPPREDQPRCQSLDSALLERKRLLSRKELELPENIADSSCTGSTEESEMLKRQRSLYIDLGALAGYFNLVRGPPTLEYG

SMILES | IC50 [µM]
CCCCN(C)C(=O)c1cc2c(-c3ccccc3)n[nH]c2s1 | > 20
Cc1n[nH]c2sc(C(=O)NC3CCCCC3)cc12 | > 20
Cc1n[nH]c2sc(C(N)=O)cc12 | > 20
CCCCN(C)C(=O)c1cc2c(C)n[nH]c2s1 | > 20
CN1CCN(C(=O)c2cc3c(-c4ccccc4)n[nH]c3s2)CC1 | > 20
Cc1n[nH]c2sc(C(=O)NCc3ccccc3)cc12 | > 20
CCCCNC(=O)c1cc2c(C)n[nH]c2s1 | > 20
O=C(NC1CCCCC1)c1cc2c(-c3ccccc3)n[nH]c2s1 | > 20
COc1ccc(CNC(=O)c2cc3c(-c4ccccc4)n[nH]c3s2)cc1 | > 20
O=C(NCc1ccccc1)c1cc2c(-c3ccccc3)n[nH]c2s1 | > 20
O=C(NCCc1ccccc1)c1cc2c(-c3ccccc3)n[nH]c2s1 | > 20
